{
  "source": "paper PMC11594329",
  "about": "“Development of LAT1-Selective Nuclear Medicine Therapeutics Using Astatine-211” (International Journal of Molecular Sciences, 2024)",
  "key": {"[1]": {"assay": "Single dose intravenous toxicity study (hematology, pathology) in ICR mice", "assay_type": "in vivo", "conditions": "ICR mice male and female, 1 MBq/mouse", "procedure": "Toxicity studies were performed using ^211At-AAMT-O-Me-L, which appeared to have the highest safety profile based on pharmacokinetic results. Labeled material was administered to ICR mice (male and female) at a dose of 1 MBq/mouse with a clear therapeutic effect, and samples were collected the day after administration and 5, 14, and 28 days later for blood and pathological examination.\nDevelopment of LAT1-selective nuclear medicine therapeutics\nKazuko Kaneda-Nakashima 1, 2*, Yoshifumi Shirakami 2, Kentaro Hisada 1, Sifan Feng 1, Yuichiro Kadonaga 2, Kazuhiro Ooe 2, Tadashi Watabe 3, Yoshiyuki Manabe 2, 4, Atsushi Shimoyama 2, 4, Masashi Murakami 2, Atsushi Toyoshima 2, Hiromitsu Haba 5, Yoshikatsu Kanai 6, Koichi Fukase 2, 4 […]\nS1. Hematological analysis\nS1.1. Animal preparation and administration of 211At-AAMT-O-Me-L\nThis study was conducted in compliance with the Animal Experiment […]\n(Hamamatsu, Japan), respectively. […] General condition and body weight were monitored. […]\nAfter the prescribed observation time, blood was collected under anesthesia and the animals were euthanized. […] Red blood cell count (RBC), hemoglobin concentration (Hb), hematocrit (Ht), white blood cell count (WBC), platelet count (platelet), lymphocytes (%Lymph), monocytes (%Mon), and granulocytes (%Gra) were calculated (Supplementary Table S2). […]"}, "[2]": {"assay": "Stability of labeled compound by TLC after labeling", "assay_type": "physicochemical", "conditions": "after 24 h and 48 h", "procedure": "All precursors were labeled by “Shirakami Reaction” and purified using an HLB column (Waters Corp, Waltham, MA, USA). All structures are shown in Supplementary Figure S1. After purification, the solution was supplemented with 1% (v/w) of ascorbic acid. The retention time of (S)-2-amino-3-(3-(astato-^211At)-4-methoxyphenyl)-2-methylpropanic acid (^211At-AAMT-OMe-L) determined using High Performance Liquid Chromatography (HPLC) (concentration: 1 MBq/mL, Flow: 1 mL/min; absorbance = 226 nm) was 12.91 min. A COSMOSIL Packed 5C18-MS-II (4.6 mm × 150 mm) Column was used at 40 °C. Mobile phase A was 0.1% formic acid and B was acetonitrile (10–60%, 20 min). […] The stability of ^211At-AAMT-OMe-L in its unpurified state was analyzed by thin layer chromatography (TLC). BAS IP MS 2025E (GE Healthcare Technologies Inc., Chicago, IL, USA) was used for imaging. […] Because optical isomers were only examined for ^211At-AAMT-OMe-L and the remaining labeled products were all L-isomers, the DL notation was omitted when optical isomers were not compared. ^211At-AAMT-O-Me-L in the crude product solution was detected at Rf = 0.80, yielding a radiochemical yield (RCY) of 81.3%. The radiochemical yield and purity of the purified product were 81% and 98%, respectively. ^211At-AAMT-O-Me-D in the crude product solution was detected at Rf = 0.80, yielding a radiochemical yield (RCY) of 79.6%. […]"}},
  "data": [
    {"molecule": "COc1ccc(C[C@](C)(N)C(=O)O)cc1[211At]", "note": "[^211At-AAMT-O-Me-L, (S)-2-amino-3-(3-(astato-^211At)-4-methoxyphenyl)-2-methylpropanic acid]", "values": [
      {"measurement": "Toxicity findings (blood and pathological examination)", "setting": "[1]; day after administration", "result": "no effects were observed"},
      {"measurement": "Toxicity findings (blood and pathological examination)", "setting": "[1]; five days after administration, subsequently cured", "result": "hematopoietic disorders originating from radiation exposure were observed"},
      {"measurement": "Stability in unpurified state by TLC", "setting": "[2]", "result": "almost no degradation"}
    ]}
  ]
}
